Experimental data from US7033829B2, “Method to inhibit cell growth using oligonucleotides” (Trustees of Boston University, priority 2000, dated 2006).
Oligonucleotides are written 5' to 3', each unit as a sugar letter and its base; * is a phosphorothioate linkage, no mark a phosphodiester; rarer units and linkages stand in square brackets, end groups in braces. Plain capitals give the bases only. d = 2'-deoxy (DNA); {P} = phosphate

Columns and labels:
p21/Waf 1/Cip 1 gene = experiment: p21 mRNA Northern blot in SCC12F cells; assay type: cell-based, human; settings: for p21 mRNA level relative to diluent control: 48 hours, FIG. 13; for increase of p21/Waf 1/Cip 1 mRNA level: within 48 hours
Protocol: The induction of melanogenesis in Cloudman S91 mouse melanoma cells by a five-nucleotide oligomer CATAC (SEQ ID NO: 6) and a nine-nucleotide oligomer, GAGTATGAG (SEQ ID NO: 1) was examined. Duplicates of Cloudman S91 murine melanoma cells were incubated with either 100 μM oligo or an equal volume of diluent (H2O) for 5 days. The cells were then collected, counted, and an equal number of cells were pelleted for melanin analysis. […] Variations of this oligonucleotide were evaluated: a scrambled 9-mer (TAGGAGGAT; SEQ ID NO: 2) and two truncated versions, a 7-mer (AGTATGA; SEQ ID NO: 3) and second 5-mer (GTATG; SEQ ID NO: 4). […] The truncated versions (SEQ ID NOs: 3 and 4) were also active, inducing 640% and 670% increases, respectively.
pTpT was previously found to inhibit cell cycle progression, at least in part through activation of p53 and subsequent upregulation of the cyclin dependent kinase inhibitor p21. Cultures of the human keratinocyte line SCC12F were treated with pTpT, SEQ ID NO: 1, SEQ ID NO: 6 or diluent alone as a negative control, collected and counted 48 hours later and processed for northern blot analysis of p21 mRNA expression. […] Thus, the sequences of the present invention activate p53 and inhibit cell proliferation similar to the effect of pTpT.

mouse skin = experiment: Photodamage of UVB-irradiated XPA+/+ and XPA−/− mouse skin; assay type: in vivo; settings: XPA−/− mice; 72 hours after last UV (diluent 15±5)
Excerpt: Patients with a mutated xeroderma pigrnentosum group A (XPA) gene have a greater than 1000 fold increased risk of UV-induced skin cancer. XPA^−/− mice mimic the human syndrome [Kraemer, K. et al., pp. 256–261 In: Molecular Biology of Aging (Bohr, V. A., et al., eds.) Munksgaard, Copenhagen, 1999]. We have previously shown that oligonucleotides, particularly thymidine dinucleotide (pTT) and pGAGTATGAG (SEQ ID NO:1) that are partial homologs of the telomere overhang tandem repeat TTAGGG (SEQ ID NO:11), increase levels of proteins involved in nucleotide excision repair and enhance the DNA repair rate. […] The mice were UV irradiated on day 5 with a previously determined erythemogenic UVB dose. […] Seventy-two hours after the last dose of […], the mouse skin was processed histologically to assess general morphology, proliferation (Ki-67) [Ohike N. and T Morohoshi, Pathol Int (2001), 51:770–777; Billgren, A. M. et al., Breast Cancer Res Treat (2002), 71:161–170], cyclobutane pyrimidine dimers (CPDs) determined by specific antibody binding, and on-going DNA repair [proliferating cell nuclear antigen (PCNA); see Savio, M. et al., Carcinogenesis (1998) 19:591–596; Rudolph, P. et al., Hum Pathol (1998) 29:1480–1487].

MM-AN cells = experiment: Metastatic potential of pretreated MM-AN cells in SCID mice; assay type: in vivo; settings: for animals that developed multiple metastases: 5 mice per group, 40 days; for METASTASIS FREE: animals of 5; for Total Tumor Load (5 animals): mouse, in vivo; for Average tumors per animal: visible tumors, 40 days (diluent 15.8)
Protocol: To study the effect of T-oligo on the metastatic potential of melanoma cells, cultures of MM-AN cells were treated for 48 hours with T-oligo, complement or diluent alone and harvested as described above. 1×10^6 cells in balanced salt solution were injected into the lateral tail vein of 5-week old SCID mice (3 groups of 5 mice). After 40 days, mice were sacrificed by CO2 inhalation, an autopsy performed and organs examined macroscopically for visible metastatic lesions.

SCC12F cells = experiment: FACS cell cycle analysis of SCC12F cells; assay type: cell-based, human; settings: for cells in the S phase / S-phase arrest: 48 hours (control 26%)
Protocol: However, when increasing concentrations of the phosphorothioate 11mer-1 were also added to these cultures, fewer cells became arrested (FIGS. 21A–21G).
Exposure of keratinocytes to UVB irradiation affects the expression of genes involved in cell cycle arrest, DNA repair and cytokine production. Single-stranded oligonucleotides sharing sequence homology with the telomere 3′ overhang, when introduced into cells, mimic these UV effects. To identify other genes that may be similarly modulated, cells of keratinocyte origin (SCC12F; a human epidermal squamous cell carcinoma line provided by Dr. James Rheinwald of Harvard University) were exposed to solar simulated irradiation (SSR) (20 mJ/cm^2, measured at 285±5 nm), to an 11-base oligonucleotide (pGTTAGGGTTAG; SEQ ID NO:5) homologous to the telomere overhang (T-oligo), or to a complementary sequence as control [pCTAACCCTAAC; (SEQ ID NO:9) control oligonucleotide]. […] These are mitochondrial-transcribed genes whose encoded proteins participate in cellular respiration.
In order to determine whether these oligonucleotides similarly affect other human cell types and to investigate the role of p53, we treated a squamous cell carcinoma line (SCC12F) (Rheinwald, J. G., et al., 1983, Human carcinogenesis. pp. 86–96. Academic Press (New York)) that over-expresses a presumptively mutated p53 (Eller, M. S. and B. A. Gilchrest. 2000, Pigment Cell Res. 13: 94–97) and a p53-null osteosarcoma cell line (Saos-2) (Wang, L. H., et al., 1998, Anticancer Res 18: 321–325) with either diluent alone, 11mer-1, 11mer-2 or 11mer-3. Cultures were analyzed by FACS after 48 hours (FIGS. 33A–33H). […] Although the percentage of cells in the S-phase in 11mer-1-treated SCC12F and Saos-2 cells was virtually identical (53±6% and 52±1%, respectively), the G0/G1 and G2/M content of the two cell types were somewhat different. This may reflect differential uptake of the oligonucleotide leading to dose-dependent differences, and/or different pathways acting in these cells to control the cell cycle. No apoptotic response to the oligonucleotides was detected in either cell type within 72 hours.

Substance | p21 mRNA level relative to diluent control (p21/Waf 1/Cip 1 gene) | increase of p21/Waf 1/Cip 1 mRNA level (p21/Waf 1/Cip 1 gene) | CPD (+) cells per 400× microscopic field (mouse skin) | animals that developed multiple metastases (MM-AN cells) | Animals with tumors (MM-AN cells; Site: Adrenal) | Total tumors (MM-AN cells; Site: Adrenal) | Animals with tumors (MM-AN cells; Site: Bone) | Total tumors (MM-AN cells; Site: Bone) | Animals with tumors (MM-AN cells; Site: Brain) | Total tumors (MM-AN cells; Site: Brain) | Animals with tumors (MM-AN cells; Site: Brown fat) | Total tumors (MM-AN cells; Site: Brown fat) | Animals with tumors (MM-AN cells; Site: Kidney) | Total tumors (MM-AN cells; Site: Kidney) | Animals with tumors (MM-AN cells; Site: Liver) | Total tumors (MM-AN cells; Site: Liver) | Animals with tumors (MM-AN cells; Site: Lung) | Total tumors (MM-AN cells; Site: Lung) | Animals with tumors (MM-AN cells; Site: Miscellaneous) | Total tumors (MM-AN cells; Site: Miscellaneous) | further results
pGAGTATGAG (DNA, 5' {P}, backbone not given here) [SEQ ID NO: 1] | ~3 fold | 200–300% | none | – | – | – | – | – | – | – | – | – | – | – | – | – | – | – | – | – | –
pCTAACCCTAAC (DNA, 5' {P}, backbone not given here) [SEQ ID NO: 9, reference compound] | – | – | – | All five animals | 2/5 | 3 | 1/5 | 3 | 3/5 | 3 | 3/5 | 8 | 4/5 | 7 | 2/5 | 4 | 3/5 | 6 | 1/5 | 7 | Animals with tumors (MM-AN cells; Site: Pancreas): 4/5; Total tumors (MM-AN cells; Site: Pancreas): 7; METASTASIS FREE (MM-AN cells): 0/5; Total Tumor Load (5 animals) (MM-AN cells): 48; Average tumors per animal (MM-AN cells): 9.6
pGTTAGGGTTAG (DNA {P}-dGdTdTdAdGdGdGdTdTdAdG) [SEQ ID NO: 5] | – | – | – | one of five animals | 1/5 | 2 | 0/5 | 0 | 1/5 | 2 | 0/5 | 0 | 0/5 | 0 | 0/5 | 0 | 0/5 | 0 | 0/5 | 0 | Animals with tumors (MM-AN cells; Site: Pancreas): 0/5; Total tumors (MM-AN cells; Site: Pancreas): 0; METASTASIS FREE (MM-AN cells): 4/5; reduction of average volume of macroscopic metastatic tumors (MM-AN cells; compared to complement treated animals): ~80%; reduction of average volume of macroscopic metastatic tumors (MM-AN cells; compared to diluent treated animals): about 85%; Total Tumor Load (5 animals) (MM-AN cells): 4; Average tumors per animal (MM-AN cells): 0.8; cells in the S-phase (SCC12F cells; 40 μM, 48 hours): 53±6%; cells in the S phase / S-phase arrest (SCC12F cells): Forty-three precent; cells arrested in the S-phase (SCC12F cells; Example 27 (control cells <23%)): > 43%
thymidine dinucleotide [pTpT] | twice that of control cells | 100–150% | none | – | – | – | – | – | – | – | – | – | – | – | – | – | – | – | – | – | –
11mer-1-S: phosphorothioate 11mer-1 (dG*dT*dT*dA*dG*dG*dG*dT*dT*dA*dG; further chemistry not fully specified) | – | – | – | – | – | – | – | – | – | – | – | – | – | – | – | – | – | – | – | – | cells in the S phase / S-phase arrest (SCC12F cells): did not induce the S-phase arrest
